According to ChEMBL document CHEMBL1126354, “Structural analysis of 2-aryl-1,3-dione compounds as inhibitors of 5-lipoxygenase” (Bioorg Med Chem Lett, 1992):

What follows are molecules tested against T1, Polyunsaturated fatty acid 5-lipoxygenase (Rattus norvegicus, UniProt P12527) (assay: In vitro for inhibition of 5-lipoxygenase activity in RBL-1 cells.).
T1 sequence (P12527 whole entry): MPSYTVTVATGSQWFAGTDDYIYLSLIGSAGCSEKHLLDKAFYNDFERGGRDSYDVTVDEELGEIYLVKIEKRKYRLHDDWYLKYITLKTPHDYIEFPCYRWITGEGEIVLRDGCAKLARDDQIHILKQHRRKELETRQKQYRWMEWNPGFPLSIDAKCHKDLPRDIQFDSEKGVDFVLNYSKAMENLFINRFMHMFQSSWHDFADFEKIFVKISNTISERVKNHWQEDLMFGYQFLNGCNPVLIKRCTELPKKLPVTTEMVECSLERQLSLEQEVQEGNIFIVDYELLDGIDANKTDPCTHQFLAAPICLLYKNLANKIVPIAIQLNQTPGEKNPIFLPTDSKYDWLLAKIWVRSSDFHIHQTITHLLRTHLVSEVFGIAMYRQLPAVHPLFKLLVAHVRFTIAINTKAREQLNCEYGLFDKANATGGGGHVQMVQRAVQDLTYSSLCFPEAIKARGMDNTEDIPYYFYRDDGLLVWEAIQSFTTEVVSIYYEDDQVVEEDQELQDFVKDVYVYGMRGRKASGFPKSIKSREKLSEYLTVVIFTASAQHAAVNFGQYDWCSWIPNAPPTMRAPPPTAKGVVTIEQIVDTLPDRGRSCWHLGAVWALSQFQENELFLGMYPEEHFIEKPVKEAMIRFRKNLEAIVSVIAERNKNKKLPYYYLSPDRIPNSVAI
Format: cell-based

IC50 | SMILES
Not Active | O=C(c1ccccc1)C(C(=O)c1ccccc1)c1ccccc1
Not Active | O=C1c2ccccc2[C@H](O)[C@H]1c1ccccc1
Not Active | O=C1C(c2ccccc2)C(=O)C2CC=CCC12 (stereo not drawn)
Not Active | O=C1CCC(=O)C1c1ccccc1
Not Active | O=C1CCCC(=O)C1c1ccccc1
Not Active | O=C1c2ccccc2C(=O)N1c1ccccc1 [N-PHENYL-PHTHALIMIDE]
Not Active | O=C1CC(=O)c2ccccc21
Not Active | O=C1C(=Cc2ccccc2)C(=O)c2ccccc21
Not Active | O=C1c2ccccc2C(=O)C1(c1ccccc1)C1(c2ccccc2)C(=O)c2ccccc2C1=O
Not Active | COc1ccc(C=C2C(=O)c3ccccc3C2=O)cc1
Not Active | COC1=C(c2ccccc2)C(=O)c2ccccc21
Not Active | O=C1c2cccc3cccc(c23)C(=O)C1c1ccccc1
Not Active | O=C1c2ccccc2[C@@H](O)[C@H]1c1ccccc1
Not Active | C=CCC1C(=O)c2ccccc2C1=O
Not Active | O=C1c2ccccc2C(=O)C1[N+](=O)[O-]

What follows are molecules tested against T2, Polyunsaturated fatty acid 5-lipoxygenase (Rattus norvegicus) (UniProt P12527) (assay: The compound was evaluated in vitro for inhibition of 5-lipoxygenase activity in RBL-1 cells at 100 uM).
T2 sequence (whole entry): T1 sequence (P12527 whole entry)
Format: cell-based

inhibition [%] | SMILES
45 | O=C1CCCCCC(=O)C1c1ccccc1

Each molecule was assayed against T1, Polyunsaturated fatty acid 5-lipoxygenase (assay: In vitro inhibition of 5-lipoxygenase activity in RBL-1 cells.).
Format: cell-based

IC50 [µM] | SMILES
15 | CSC1(c2ccccc2)C(=O)c2ccccc2C1=O
2.3 | O=C1c2ccc(Br)cc2C(=O)C1(F)c1ccccc1 (stereo not drawn)
3.2 | O=C1c2ccccc2C(=O)C1c1ccc2ccccc2c1
2 | O=C1c2ccccc2C(=O)C1(F)c1ccc2ccccc2c1
25 | O=C1CCCCC(=O)C1c1ccc2c(c1)OCO2
15 | O=C1c2ccccc2C(=O)C1c1ccccc1 [PHENINDIONE]
12 | CCCCc1ccc(C2C(=O)CCCCCC2=O)cc1
2.7 | CSc1ccc(C2C(=O)c3ccccc3C2=O)cc1
4.5 | CN(C)c1ccc(C2C(=O)c3ccccc3C2=O)cc1
41 | O=C1CCCCC(=O)C1c1ccccc1
9.6 | O=C1c2ccccc2C(=O)C1c1ccc(F)cc1 [FLUINDIONE]
9.1 | COc1ccc(C2C(=O)c3ccccc3C2=O)cc1 [ANISINDIONE]
5 | O=C1c2ccccc2C(=O)C1c1ccc(Cl)cc1 [CLORINDIONE]

SMILES | IC50 [µM]
O=C1c2ccccc2C(=O)C1(Sc1ccccc1)c1ccccc1 | 4.8
CCCCc1ccc(C2C(=O)c3ccccc3C2=O)cc1 | 1.7
O=C1c2ccccc2C(=O)C1(F)c1ccccc1 | 1.7
CC(C)(C)c1cc(C2C(=O)c3ccccc3C2=O)cc(C(C)(C)C)c1 | 2.8

These molecules were tested against T2, Polyunsaturated fatty acid 5-lipoxygenase (Rattus norvegicus) (assay: The compound was evaluated in vitro for inhibition of 5-lipoxygenase activity in RBL-1 cells at 30 uM).
Format: cell-based

inhibition [%] | SMILES
45 | O=C1C(c2ccccc2)=C(c2ccccc2)C(=O)C1c1ccccc1
14 | O=C1c2ccccc2C(=O)C1c1cccc2ccccc12

What follows are molecules tested against T1, Polyunsaturated fatty acid 5-lipoxygenase (assay: The compound was evaluated in vitro for inhibition of 5-lipoxygenase activity in RBL-1 cells.).
Format: cell-based

IC50 [µM] | SMILES
28 | O=C1c2ccccc2C(=O)C1C1C(=O)c2ccccc2C1=O

The molecules below were run against T2, Polyunsaturated fatty acid 5-lipoxygenase (Rattus norvegicus) (assay: The compound was evaluated in vitro for inhibition of 5-lipoxygenase activity in RBL-1 cells at 20 uM).
Format: cell-based

inhibition [%] | SMILES
50 | O=C1c2ccccc2-c2ccccc2C(=O)C1c1ccccc1

The molecules below were run against T1, Polyunsaturated fatty acid 5-lipoxygenase (assay: The compound was evaluated in vitro for inhibition of 5-lipoxygenase activity in RBL-1 cells; No significant inhibitory activity up to 30 uM).
Format: cell-based

IC50 | SMILES
Not Active | O=C(O)c1ccc(C2C(=O)c3ccccc3C2=O)cc1
